This assay concerns the target T1, EndoMA1 (MIAR_33230) (Microbacterium arabinogalactanolyticum, UniProt A0AAJ6N6D4).
T1 construct: 53,678 Da monomer, dimer; catalytic domain plus putative CBM
Kind of assay: X-ray crystallography ([…] Å). To be noted: co-crystallized with A9LT; second site, putative CBM domain; possible crystal packing artifact. Format: binding.

T1 sequence (A0AAJ6N6D4 entry or part of it): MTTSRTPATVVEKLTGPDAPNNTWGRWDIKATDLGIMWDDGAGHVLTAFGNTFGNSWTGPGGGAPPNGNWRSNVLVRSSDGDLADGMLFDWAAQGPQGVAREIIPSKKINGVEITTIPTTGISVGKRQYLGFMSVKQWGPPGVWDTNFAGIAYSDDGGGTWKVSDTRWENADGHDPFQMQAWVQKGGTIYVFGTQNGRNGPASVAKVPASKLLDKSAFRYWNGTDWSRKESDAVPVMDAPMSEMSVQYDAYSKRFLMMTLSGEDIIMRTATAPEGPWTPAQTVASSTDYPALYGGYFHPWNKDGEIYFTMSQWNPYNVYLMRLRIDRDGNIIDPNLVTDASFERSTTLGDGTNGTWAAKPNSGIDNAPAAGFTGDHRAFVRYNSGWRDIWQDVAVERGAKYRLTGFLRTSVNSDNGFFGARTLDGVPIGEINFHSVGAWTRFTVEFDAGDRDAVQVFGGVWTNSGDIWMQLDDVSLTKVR

Consider `OC[C@H]1O[C@H](OC[C@H]2O[C@H](OC[C@H]3O[C@H](OC[C@H]4OC(O)[C@@H](O)[C@@H]4O)[C@@H](O)[C@@H]3O)[C@@H](O)[C@@H]2O)[C@@H](O)[C@@H]1O` (stereo partly shown) [A4L], for which the “X-ray crystallography (1.80 Å)” value was “The A4L molecule is bound to the shallow surface of the putative CBM domain”.
